Measurements as given in ChEMBL document CHEMBL4765323, “Design, synthesis, and biological evaluation of novel miconazole analogues containing selenium as potent antifungal agents” (Eur J Med Chem, 2020).
Values after ≈ are worked out from the molar mass of the structure shown.

Experiments:
Assay type in all cases: functional
Candida albicans [1] = assay: Antifungal activity against Candida albicans ATCC SC5314 measured after 24 hrs by micro-broth dilution assay
[Candida] zeylanoides = Antifungal activity against Candida zeylanoides CMGCC2.3739 measured after 24 hrs by micro-broth dilution assay; details: Dujonia zeylanoides
Candida albicans [2] = assay: Antifungal activity against fluconazole-resistant Candida albicans strain 904 measured after 24 hrs by micro-broth dilution assay
Nakaseomyces glabratus = assay: Antifungal activity against clinical isolate Candida glabrata measured after 24 hrs by micro-broth dilution assay
Candida albicans [3] = assay: Antifungal activity against fluconazole-resistant Candida albicans 632 measured after 24 hrs by micro-broth dilution assay
Candida albicans [4] = assay: Antifungal activity against Candida albicans CPCC400616 measured after 24 hrs by micro-broth dilution assay
Candida albicans [5] = assay: Antifungal activity against fluconazole-resistant Candida albicans 17 measured after 24 hrs by micro-broth dilution assay
Aspergillus fumigatus = assay: Antifungal activity against Aspergillus fumigatus CGMCC 3.7795 measured after 72 hrs by micro-broth dilution assay
Candida parapsilosis = assay: Antifungal activity against Candida parapsilosis ATCC 22019 measured after 24 hrs by micro-broth dilution assay; details: Lodderomyces parapsilosis
Pichia kudriavzevii = assay: Antifungal activity against Candida krusei AS 2.1045 measured after 24 hrs by micro-broth dilution assay
Cryptococcus neoformans = assay: Antifungal activity against Cryptococcus neoformans CGMCC2.3161 measured after 72 hrs by micro-broth dilution assay
Candida albicans [6] = assay: Antifungal activity against Candida albicans 901 measured after 24 hrs by micro-broth dilution assay
Candida albicans [7] = assay: Antifungal activity against fluconazole-resistant Candida albicans CaR measured after 24 hrs by micro-broth dilution assay

SMILES	MIC (Candida albicans [1])	MIC ([Candida] zeylanoides)	MIC (Candida albicans [2])	MIC (Nakaseomyces glabratus)	MIC (Candida albicans [3])	MIC (Candida albicans [4])	MIC (Candida albicans [5])	MIC (Aspergillus fumigatus)	MIC (Candida parapsilosis)	MIC (Pichia kudriavzevii)	MIC (Cryptococcus neoformans)	MIC (Candida albicans [6])	MIC (Candida albicans [7])
COc1cc(Br)c(C[Se]C(Cn2ccnc2)c2ccc(Cl)cc2Cl)cc1OC (stereo unspecified)	0.03 µg/mL (≈ 0.0546 µM)	> 128 µg/mL	32 µg/mL (≈ 58.3 µM)	0.5 µg/mL (≈ 0.91 µM)	> 128 µg/mL	0.25 µg/mL (≈ 0.455 µM)	> 128 µg/mL	16 µg/mL (≈ 29.1 µM)	> 128 µg/mL	> 128 µg/mL	0.5 µg/mL (≈ 0.91 µM)	128 µg/mL (≈ 233 µM)	128 µg/mL (≈ 233 µM)
COc1cccc(C[Se]C(Cn2ccnc2)c2ccc(Cl)cc2Cl)c1 (stereo unspecified)	0.06 µg/mL (≈ 0.136 µM)	1 µg/mL (≈ 2.27 µM)	1 µg/mL (≈ 2.27 µM)	0.25 µg/mL (≈ 0.568 µM)	2 µg/mL (≈ 4.54 µM)	0.06 µg/mL (≈ 0.136 µM)	4 µg/mL (≈ 9.09 µM)	2 µg/mL (≈ 4.54 µM)	0.13 µg/mL (≈ 0.295 µM)	1 µg/mL (≈ 2.27 µM)	0.13 µg/mL (≈ 0.295 µM)	1 µg/mL (≈ 2.27 µM)	2 µg/mL (≈ 4.54 µM)
Cc1cccc(C[Se]C(Cn2ccnc2)c2ccc(Cl)cc2Cl)c1 (stereo unspecified)	0.03 µg/mL (≈ 0.0707 µM)	16 µg/mL (≈ 37.7 µM)	2 µg/mL (≈ 4.71 µM)	0.5 µg/mL (≈ 1.18 µM)	2 µg/mL (≈ 4.71 µM)	0.03 µg/mL (≈ 0.0707 µM)	4 µg/mL (≈ 9.43 µM)	8 µg/mL (≈ 18.9 µM)	1 µg/mL (≈ 2.36 µM)	4 µg/mL (≈ 9.43 µM)	0.25 µg/mL (≈ 0.589 µM)	2 µg/mL (≈ 4.71 µM)	4 µg/mL (≈ 9.43 µM)
Clc1ccc(C[Se]C(Cn2ccnc2)c2ccc(Cl)cc2Cl)cc1 (stereo unspecified)	0.03 µg/mL (≈ 0.0675 µM)	8 µg/mL (≈ 18 µM)	> 128 µg/mL	1 µg/mL (≈ 2.25 µM)	64 µg/mL (≈ 144 µM)	0.06 µg/mL (≈ 0.135 µM)	8 µg/mL (≈ 18 µM)	2 µg/mL (≈ 4.5 µM)	0.5 µg/mL (≈ 1.12 µM)	0.5 µg/mL (≈ 1.12 µM)	0.25 µg/mL (≈ 0.562 µM)	8 µg/mL (≈ 18 µM)	16 µg/mL (≈ 36 µM)
Cc1cccc(C[Se]C(Cn2ccnc2)c2ccc(F)cc2F)c1 (stereo unspecified)	0.06 µg/mL (≈ 0.153 µM)	1 µg/mL (≈ 2.56 µM)	1 µg/mL (≈ 2.56 µM)	1 µg/mL (≈ 2.56 µM)	16 µg/mL (≈ 40.9 µM)	0.13 µg/mL (≈ 0.332 µM)	8 µg/mL (≈ 20.4 µM)	2 µg/mL (≈ 5.11 µM)	0.25 µg/mL (≈ 0.639 µM)	1 µg/mL (≈ 2.56 µM)	0.5 µg/mL (≈ 1.28 µM)	4 µg/mL (≈ 10.2 µM)	2 µg/mL (≈ 5.11 µM)
COc1cc(C[Se]C(Cn2ccnc2)c2ccc(Cl)cc2Cl)cc(OC)c1 (stereo unspecified)	0.13 µg/mL (≈ 0.276 µM)	1 µg/mL (≈ 2.13 µM)	128 µg/mL (≈ 272 µM)	0.25 µg/mL (≈ 0.532 µM)	32 µg/mL (≈ 68 µM)	0.13 µg/mL (≈ 0.276 µM)	32 µg/mL (≈ 68 µM)	1 µg/mL (≈ 2.13 µM)	0.5 µg/mL (≈ 1.06 µM)	8 µg/mL (≈ 17 µM)	0.5 µg/mL (≈ 1.06 µM)	4 µg/mL (≈ 8.51 µM)	4 µg/mL (≈ 8.51 µM)
Clc1ccc(C(Cn2ccnc2)[Se]Cc2ccc(Br)cc2)c(Cl)c1 (stereo unspecified)	0.06 µg/mL (≈ 0.123 µM)	2 µg/mL (≈ 4.09 µM)	128 µg/mL (≈ 262 µM)	0.5 µg/mL (≈ 1.02 µM)	> 128 µg/mL	0.25 µg/mL (≈ 0.511 µM)	8 µg/mL (≈ 16.4 µM)	1 µg/mL (≈ 2.04 µM)	4 µg/mL (≈ 8.18 µM)	32 µg/mL (≈ 65.4 µM)	0.5 µg/mL (≈ 1.02 µM)	64 µg/mL (≈ 131 µM)	128 µg/mL (≈ 262 µM)
Fc1ccc(C(Cn2ccnc2)[Se]Cc2ccccc2)c(F)c1 (stereo unspecified)	0.13 µg/mL (≈ 0.345 µM)	0.5 µg/mL (≈ 1.33 µM)	64 µg/mL (≈ 170 µM)	1 µg/mL (≈ 2.65 µM)	4 µg/mL (≈ 10.6 µM)	0.25 µg/mL (≈ 0.663 µM)	8 µg/mL (≈ 21.2 µM)	1 µg/mL (≈ 2.65 µM)	0.13 µg/mL (≈ 0.345 µM)	0.25 µg/mL (≈ 0.663 µM)	0.5 µg/mL (≈ 1.33 µM)	2 µg/mL (≈ 5.3 µM)	4 µg/mL (≈ 10.6 µM)
COc1cccc(C[Se]C(Cn2ccnc2)c2ccc(F)cc2F)c1 (stereo unspecified)	0.13 µg/mL (≈ 0.319 µM)	1 µg/mL (≈ 2.46 µM)	16 µg/mL (≈ 39.3 µM)	1 µg/mL (≈ 2.46 µM)	2 µg/mL (≈ 4.91 µM)	0.06 µg/mL (≈ 0.147 µM)	16 µg/mL (≈ 39.3 µM)	2 µg/mL (≈ 4.91 µM)	0.5 µg/mL (≈ 1.23 µM)	2 µg/mL (≈ 4.91 µM)	0.5 µg/mL (≈ 1.23 µM)	8 µg/mL (≈ 19.6 µM)	4 µg/mL (≈ 9.82 µM)
Cc1ccc(C[Se]C(Cn2ccnc2)c2ccc(Cl)cc2Cl)cc1C (stereo unspecified)	4 µg/mL (≈ 9.13 µM)	128 µg/mL (≈ 292 µM)	128 µg/mL (≈ 292 µM)	0.5 µg/mL (≈ 1.14 µM)	16 µg/mL (≈ 36.5 µM)	0.25 µg/mL (≈ 0.57 µM)	8 µg/mL (≈ 18.3 µM)	4 µg/mL (≈ 9.13 µM)	> 128 µg/mL	128 µg/mL (≈ 292 µM)	0.5 µg/mL (≈ 1.14 µM)	32 µg/mL (≈ 73 µM)	128 µg/mL (≈ 292 µM)
Cc1ccc(C[Se]C(Cn2ccnc2)c2ccc(Cl)cc2Cl)cc1 (stereo unspecified)	0.13 µg/mL (≈ 0.306 µM)	16 µg/mL (≈ 37.7 µM)	> 128 µg/mL	1 µg/mL (≈ 2.36 µM)	128 µg/mL (≈ 302 µM)	0.03 µg/mL (≈ 0.0707 µM)	32 µg/mL (≈ 75.4 µM)	2 µg/mL (≈ 4.71 µM)	1 µg/mL (≈ 2.36 µM)	4 µg/mL (≈ 9.43 µM)	0.25 µg/mL (≈ 0.589 µM)	64 µg/mL (≈ 151 µM)	16 µg/mL (≈ 37.7 µM)
Fc1ccc(C[Se]C(Cn2ccnc2)c2ccc(Cl)cc2Cl)cc1 (stereo unspecified)	0.03 µg/mL (≈ 0.0701 µM)	4 µg/mL (≈ 9.34 µM)	64 µg/mL (≈ 149 µM)	0.13 µg/mL (≈ 0.304 µM)	128 µg/mL (≈ 299 µM)	0.03 µg/mL (≈ 0.0701 µM)	4 µg/mL (≈ 9.34 µM)	2 µg/mL (≈ 4.67 µM)	0.5 µg/mL (≈ 1.17 µM)	1 µg/mL (≈ 2.34 µM)	0.25 µg/mL (≈ 0.584 µM)	32 µg/mL (≈ 74.7 µM)	16 µg/mL (≈ 37.4 µM)
